Reference: patent US20180071296A1, “COMBINATION THERAPY COMPRISING AN INHIBITOR OF JAK, CDK, AND PIM” (Novartis AG, priority 2013, published 2018)

Columns and labels:
Format in all cases: in vivo
[1] = system: Ba/F3-EpoR-JAK2^V617F cells; assay: Total tumor load (bioluminescence, IVIS xenogen) in mouse MPN model; details: study endpoint; for reduction of total tumor load (level of bioluminescence) relative to the vehicle control: first experiment, FIG. 1, Compound A 60 mg/kg PO BID, Compound B 75 mg/kg PO QD, alone or combined, SCID/Beige mice
Excerpt: The combination of Compound A, Compound B and Compound C was examined in a mouse model of MPN. In this model, Ba/F3 cells harbored Epo Receptor and JAK2 V617F mutations. Ba/F3-EpoR-JAK2^V617F was engineered with a luciferase tag for experimental imaging. Female SCID/Beige mice were inoculated with 1x10e6 Ba/F3-EpoR-JAK2^V617F cells through the tail vein. Total tumor load was monitored with IVIS xenogen technology. It is defined as the sum of dorsal and ventral photon signal.
In the first experiment, disease-bearing mice were randomized into treatment cohorts, based on the disease burden. Mice were treated with vehicle, Compound B at 75 mg/kg, by oral gavage (PO) daily (QD), Compound A at 60 mg/kg, PO, twice daily (BID) and the combination of both agents.
In the second experiment, disease-bearing mice were randomized into treatment cohort, based on the disease burden. Mice were treated with vehicle, Compound A at 60 mg/kg, PO, twice daily (BID), and the triple combination of Compound A, Compound B (at 75 mg/kg, QD, PO) and Compound C (at 25 mg/kg, QD, PO).

JAK2V617F allele burden = JAK2V617F allele burden in PBMC (taqman) at study endpoint in mouse MPN model; details: second experiment, FIG. 6, Compound A 60 mg/kg PO BID alone or with Compound B 75 mg/kg QD PO and Compound C 25 mg/kg QD PO
Description: (§1) The combination of Compound A, Compound B and Compound C was examined in a mouse model of MPN. In this model, Ba/F3 cells harbored Epo Receptor and JAK2 V617F mutations. Ba/F3-EpoR-JAK2^V617F was engineered with a luciferase tag for experimental imaging. Female SCID/Beige mice were inoculated with 1x10e6 Ba/F3-EpoR-JAK2^V617F cells through the tail vein. […] Additionally, JAK2V617F allele burden, defined as the relative ratio of JAK2V617F over wild type JAK2, is measured by taqman in PBMCs at study endpoint.
(§2) In the first experiment, disease-bearing mice were randomized into treatment cohorts, based on the disease burden. Mice were treated with vehicle, Compound B at 75 mg/kg, by oral gavage (PO) daily (QD), Compound A at 60 mg/kg, PO, twice daily (BID) and the combination of both agents. At study endpoint, spleen weight from each of the study cohorts was obtained. Relative change in the spleen weight was calculated by normalizing individual spleen weight against the mean spleen weight of the cohort receiving vehicle treatment.
In the second experiment, disease-bearing mice were randomized into treatment cohort, based on the disease burden. […] Relative spleen weight was calculated by normalizing individual spleen weight against the mean spleen weight of the cohort receiving vehicle treatment.

[2] = system: Ba/F3-EpoR-JAK2^V617F cells; assay: Spleen weight at study endpoint in mouse MPN model
Description: as §1, §2
In the second experiment, disease-bearing mice were randomized into treatment cohort, based on the disease burden. Mice were treated with vehicle, Compound A at 60 mg/kg, PO, twice daily (BID), and the triple combination of Compound A, Compound B (at 75 mg/kg, QD, PO) and Compound C (at 25 mg/kg, QD, PO). At study endpoint, spleen weight from each of the study cohorts was obtained. Relative spleen weight was calculated by normalizing individual spleen weight against the mean spleen weight of the cohort receiving vehicle treatment.

[3] = first experiment, FIG. 2, Compound A 60 mg/kg PO BID, Compound B 75 mg/kg PO QD, alone or combined

Compound | reduction of total tumor load (level of bioluminescence) relative to the vehicle control [1] [%] | reduction of total tumor load (level of bioluminescence) ([1]; second experiment, FIG. 4, Compound A 60 mg/kg PO BID alone or with Compound B 75 mg/kg QD PO and Compound C 25 mg/kg QD PO) [%] | down-modulation of JAK2V617F allele burden (JAK2V617F allele burden) [%] | reduction of spleen weight relative to that of the vehicle control [2, 3] [%] | reduction of spleen weight relative to that of the vehicle control ([2]; second experiment, FIG. 5, Compound A 60 mg/kg PO BID alone or with Compound B 75 mg/kg QD PO and Compound C 25 mg/kg QD PO) [%]
N#CC[C@H](C1CCCC1)n1cc(-c2ncnc3[nH]ccc23)cn1 [Compound A, (3R)-3-cyclopentyl-3-[4-(7H-pyrrolo[2,3-d]pyrimidin-4-yl)pyrazol-1-yl]propanenitrile] | ~79 | ~70 | ~15 | ~62 | ~53
CN(C)C(=O)c1cc2cnc(Nc3ccc(N4CCNCC4)cn3)nc2n1C1CCCC1 [Compound B, 7-Cyclopentyl-2-(5-piperazin-1-yl-pyridin-2-ylamino)-7H-pyrrolo[2,3-d]pyrimidine-6-carboxylic acid dimethylamide] | ~77 |  |  | ~38 | 
